By EC50 is commonly meant the midpoint of the concentration-response curve. By IC50 is commonly meant the concentration needed to halve the response being measured.

Like-named read-outs stand apart in the source and are kept apart here. Numbered stars: 1 amine (or outer) side, 2 acyl side, 3 side chain; on linkers, the order of the positions; unused ones are H or OH. Bridge positions count the residues as written; N and C are the ends. Peptide text beside a SMILES is read from it. * marks the point of attachment. C20 diacid = O=C(O)CCCCCCCCCCCCCCCCCCC(=O)*; γGlu = O=C(O)[C@H](CCC(=O)[*:2])N[*:1]

For test [1], the target named is T1, human amylin receptor (amylin 3(a) receptor: human calcitonin receptor + RAMP-3) (Homo sapiens, UniProt O60896+P30988).
T1 construct: expressed in transfected cells
T1 sequence (P30988 25-474): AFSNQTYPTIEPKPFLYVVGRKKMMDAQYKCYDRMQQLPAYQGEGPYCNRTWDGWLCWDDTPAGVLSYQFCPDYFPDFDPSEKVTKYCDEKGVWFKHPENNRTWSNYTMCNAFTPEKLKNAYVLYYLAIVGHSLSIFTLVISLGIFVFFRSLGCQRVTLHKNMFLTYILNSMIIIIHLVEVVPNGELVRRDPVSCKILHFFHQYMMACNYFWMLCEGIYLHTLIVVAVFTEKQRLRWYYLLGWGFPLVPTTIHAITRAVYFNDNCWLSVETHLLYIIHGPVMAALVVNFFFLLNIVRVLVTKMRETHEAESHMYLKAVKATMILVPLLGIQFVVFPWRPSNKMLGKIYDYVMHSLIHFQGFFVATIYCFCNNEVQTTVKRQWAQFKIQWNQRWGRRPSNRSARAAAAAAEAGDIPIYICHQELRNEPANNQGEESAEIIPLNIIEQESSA
T1 sequence (O60896 24-148 partner): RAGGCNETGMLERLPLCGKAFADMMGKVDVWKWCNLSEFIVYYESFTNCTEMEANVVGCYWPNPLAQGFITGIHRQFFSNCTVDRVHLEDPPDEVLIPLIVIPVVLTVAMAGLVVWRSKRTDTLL
Nature of the test: Assay (II)a functional assay, human amylin receptor (CRE luciferase, BHK cells). Type of test: cell-based. Conditions: for EC50: read-out: hAmylin-R funct. EC50.

Test [2] concerns the target T2, human calcitonin receptor (Homo sapiens, UniProt P30988).
T2 construct: expressed in transfected cells
T2 sequence (P30988 25-474): T1 sequence (P30988 25-474)
Nature of the test: Assay (II)a functional assay, human calcitonin receptor (CRE luciferase, BHK cells).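 Also: luminescence from a CRE-driven luciferase reporter, read by single photon counting after cells were exposed to test samples for 3 h at 37 °C under 5% CO2.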 Type of test: cell-based. As to conditions: read-out: hCTR funct. EC50.
Experimental: Assay (II)—Functional Assays
Consequently, transcription is activated by promoters containing multiple copies of the cAMP response element (CRE).
The cell line was further transfected with RAMP-3, using standard methods.
After incubation overnight at 37° C. and 5% CO2, the growth medium was replaced by 50 μl/well assay medium (DMEM (without phenol red), Glutamax™, 10% FBS, and 10 mM Hepes, pH 7.4). Further, 50 μl/well of standard or sample in assay buffer were added. After 3 hours incubation at 37° C. and 5% CO2, the assay medium with standard or sample were removed and replaced by 100 μl/well PBS. Further, 100 μl/well LucLite™ was added. The plates were sealed and incubated at room temperature for 30 minutes. Finally, luminescence was measured on a TopCounter (Packard) in SPC (single photon counting) mode.

The next test has as its target T3, human amylin receptor (Homo sapiens, UniProt O60896+P30988).
T3 construct: expressed in transfected cells
T3 sequence (P30988 25-474): T1 sequence (P30988 25-474)
T3 sequence (O60896 24-148 partner): T1 sequence (O60896 24-148 partner)
Nature of the test: Assay (V) binding to the human amylin receptor (SPA, 125I-rat amylin). As to conditions: for IC50: human amylin receptor membranes, SPA, read-out: hAmylin-R bind IC50; for Ratio hCT/hAmylin binding: human binding ratio, included for comparison. In short, it runs like this:
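SPA competition binding on membranes from Amylin 3(a)/CRE-luc cells, 35 ng/μL membranes with 0.05 mg/well beads. Buffer 50 mM Hepes pH 7.4, 1 mM CaCl2, 5 mM MgCl2, 0.1% OA, 0.02% Tween20. IC50 from one-site competition fit as affinity measure.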

The target of test [3] is T2, human calcitonin receptor. Nature of the test: Assay (VII) binding to the human calcitonin receptor (SPA, 125I-Calcitonin).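 Also: cell membranes coupled to SPA beads, competitive displacement read by scintillation counting, IC50 derived from a one-site competition fit as a measure of receptor affinity.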 Conditions: read-out: hCTR bind IC50.
Experimental: Membranes were prepared in the following way; the cells were rinsed with PBS and incubated with Versene for approximately 5 min before harvesting. The cells were flushed with PBS and the cell-suspension was centrifuged for 5 min at 1000 rpm. […] The resulting pellet was resuspended in buffer 2 and protein concentration was measured (BCA protein Assay, Pierce). The homogenate was kept cold during the whole procedure. The membranes were kept at −80° C. until use. Assay was performed in a 384 well Optiplate (PerkinElmer) in a total volume of 40 ul. Membranes were mixed with SPA beads. Final concentration of membranes 35 ng/μL final and Final concentration of SPA beads was 0.05 mg/well. Test-compounds were dissolved in DMSO and further diluted in assay buffer (50 mM Hepes, pH 7.4, 1 mM CaCl2, 5 mM MgCl2, 0.1% OA and 0.02% Tween20). […] Samples were analyzed on TopCounter™ (Packard). The IC50 was calculated using (one site binding competition analysis) GraphPad Prism5 as a measure of receptor affinity.
Where [4] appears, read: Table 6, human functional selectivity (hCTR EC50 / hAmylin-R EC50).
[5] abbreviates: Table 6a, human functional selectivity (hCTR EC50 / hAmylin-R EC50), at least 5.
Where [6] appears, read: Table 6i, hCTR funct. EC50 / hAmylin-R funct. EC50.
The mark [7] stands for this setting: Table 6i, human amylin receptor functional.
Setting [8] is: Table 6j, hCTR funct. EC50 / hAmylin-R funct. EC50.
Where [9] appears, read: functional assay, human amylin receptor.

Consider `CC[C@H](C)[C@H](NC(=O)[C@H](C)NC(=O)CNC(=O)[C@H](Cc1ccccc1)NC(=O)[C@H](CC(N)=O)NC(=O)[C@@H]1CCCN1C(=O)[C@H](CO)NC(=O)[C@H](CO)NC(=O)[C@H](Cc1c[nH]cn1)NC(=O)[C@H](CCCNC(=N)N)NC(=O)[C@H](CC(C)C)NC(=O)[C@H](Cc1ccccc1)NC(=O)[C@H](CCC(=O)O)NC(=O)[C@H](C)NC(=O)[C@H](CC(C)C)NC(=O)[C@H](CCCNC(=N)N)NC(=O)[C@H](CCC(N)=O)NC(=O)[C@@H](NC(=O)[C@H](C)NC(=O)[C@@H]1CSSC[C@H](NC(=O)[C@H](CCCCN)NC(=O)CC[C@H](NC(=O)CCCCCCCCCCCCCCCCCCC(=O)O)C(=O)O)C(=O)N[C@@H](CC(N)=O)C(=O)N[C@@H]([C@@H](C)O)C(=O)N[C@@H](C)C(=O)N[C@@H]([C@@H](C)O)C(=O)N1)[C@@H](C)O)C(=O)N1CCC[C@H]1C(=O)N[C@@H](CO)C(=O)N[C@@H](CO)C(=O)N[C@H](C(=O)N[C@@H](CC(N)=O)C(=O)N[C@H](C(=O)NCC(=O)N[C@@H](CO)C(=O)N[C@@H](CC(N)=O)C(=O)N[C@H](C(=O)N[C@@H](Cc1ccc(O)cc1)C(N)=O)[C@@H](C)O)C(C)C)[C@@H](C)O` [Example 9], for which the “Ratio hCT/hAmylin funct.” value in test [1] (setting [4]), in test [1] (setting [5]), in test [1] (setting [6]) and in test [1] (setting [8]) was 7.4 in each case. Further, the EC50 in test [1] (setting [7]) stood at 0.175 nM; in test [2] it was 1.29 nM. Besides, the half-maximal inhibitory concentration (IC50) on human amylin receptor is 0.143 nM; in test [3] it was 1.14 nM. The “Ratio hCT/hAmylin binding” value at human amylin receptor is reported as 8.0.
For `CC[C@H](C)[C@H](NC(=O)[C@H](C)NC(=O)CNC(=O)[C@H](Cc1ccccc1)NC(=O)[C@H](CC(N)=O)NC(=O)[C@@H]1CCCN1C(=O)[C@H](CO)NC(=O)[C@H](CO)NC(=O)[C@H](Cc1c[nH]cn1)NC(=O)[C@H](CCCNC(=N)N)NC(=O)[C@H](CC(C)C)NC(=O)[C@H](Cc1ccccc1)NC(=O)[C@H](CCC(=O)O)NC(=O)[C@H](C)NC(=O)[C@H](CC(C)C)NC(=O)[C@H](CCCNC(=N)N)NC(=O)[C@H](CCC(N)=O)NC(=O)[C@@H](NC(=O)[C@H](C)NC(=O)[C@@H]1CSSC[C@H](NC(=O)[C@H](CCCCN)NC(=O)CC[C@H](NC(=O)CC[C@H](NC(=O)CCCCCCCCCCCCCCCCCCC(=O)O)C(=O)O)C(=O)O)C(=O)N[C@@H](CC(N)=O)C(=O)N[C@@H]([C@@H](C)O)C(=O)N[C@@H](C)C(=O)N[C@@H]([C@@H](C)O)C(=O)N1)[C@@H](C)O)C(=O)N1CCC[C@H]1C(=O)N[C@@H](CO)C(=O)N[C@@H](CO)C(=O)N[C@H](C(=O)N[C@@H](CC(N)=O)C(=O)N[C@H](C(=O)NCC(=O)N[C@@H](CO)C(=O)N[C@@H](CC(N)=O)C(=O)N[C@H](C(=O)N1CCC[C@H]1C(N)=O)[C@@H](C)O)C(C)C)[C@@H](C)O` [Example 14] ({C20 diacid-γGlu-γGlu}-KCNTATCATQRLAEFLRHSSPNFGAIPSSTNVGSNTP-NH2; disulfide 2-7), in test [1] (setting [4]), the “Ratio hCT/hAmylin funct.” value amounted to 1.6. For the same compound, the half-maximal effective concentration (EC50) in test [1] (setting [9]) was determined as 0.146 nM; in test [2], 0.238 nM. The IC50 turned out to be 0.196 nM on human amylin receptor and 0.432 nM in test [3]. For the same compound, on human amylin receptor, the “Ratio hCT/hAmylin binding” value stood at 2.2.
As to `CC[C@H](C)[C@H](NC(=O)[C@H](C)NC(=O)CNC(=O)[C@H](Cc1ccccc1)NC(=O)[C@H](CC(N)=O)NC(=O)[C@@H]1CCCN1C(=O)[C@H](CO)NC(=O)[C@H](CO)NC(=O)[C@H](Cc1c[nH]cn1)NC(=O)[C@H](CCCNC(=N)N)NC(=O)[C@H](CC(C)C)NC(=O)[C@H](Cc1ccccc1)NC(=O)[C@H](CCC(=O)O)NC(=O)[C@H](C)NC(=O)[C@H](CC(C)C)NC(=O)[C@H](CCCNC(=N)N)NC(=O)[C@H](CCC(N)=O)NC(=O)[C@@H](NC(=O)[C@H](C)NC(=O)[C@@H]1CSSC[C@H](NC(=O)[C@H](CCCCN)NC(=O)CC[C@H](NC(=O)CCCCCCCCCCCCCCCCCCC(=O)O)C(=O)O)C(=O)N[C@@H](CC(N)=O)C(=O)N[C@@H]([C@@H](C)O)C(=O)N[C@@H](C)C(=O)N[C@@H]([C@@H](C)O)C(=O)N1)[C@@H](C)O)C(=O)N1CCC[C@H]1C(=O)N[C@@H](CO)C(=O)N[C@@H](CO)C(=O)N[C@H](C(=O)N[C@@H](CC(N)=O)C(=O)N[C@H](C(=O)NCC(=O)N[C@@H](CO)C(=O)N[C@@H](CCCNC(=N)N)C(=O)N[C@H](C(=O)N[C@@H](Cc1ccc(O)cc1)C(N)=O)[C@@H](C)O)C(C)C)[C@@H](C)O` [Example 16] ({C20 diacid-γGlu}-KCNTATCATQRLAEFLRHSSPNFGAIPSSTNVGSRTY-NH2; disulfide 2-7), the “Ratio hCT/hAmylin funct.” value in test [1] (setting [4]) is recorded as 6.1; in test [1] (setting [5]), 6.1; in test [1] (setting [6]) it was 6.1; in test [1] (setting [8]), 6.1; in test [1] (Table 6k, hCTR funct. EC50 / hAmylin-R funct. EC50) it was 6.1. Besides, the EC50 is 0.363 nM in test [1] (setting [7]) and 2.21 nM in test [2]. For the same compound, the IC50 on human amylin receptor was determined as 0.894 nM; in test [3], 17.1 nM.
Regarding `CC[C@H](C)[C@H](NC(=O)[C@H](C)NC(=O)CNC(=O)[C@H](Cc1ccccc1)NC(=O)[C@H](CC(N)=O)NC(=O)[C@@H]1CCCN1C(=O)[C@H](CO)NC(=O)[C@H](CO)NC(=O)[C@H](Cc1c[nH]cn1)NC(=O)[C@H](CCCNC(=N)N)NC(=O)[C@H](CC(C)C)NC(=O)[C@H](Cc1ccccc1)NC(=O)[C@H](CCC(=O)O)NC(=O)[C@H](C)NC(=O)[C@H](CC(C)C)NC(=O)[C@H](CCCNC(=N)N)NC(=O)[C@H](CCC(N)=O)NC(=O)[C@@H](NC(=O)[C@H](C)NC(=O)[C@@H]1CSSC[C@H](NC(=O)[C@H](CCCCN)NC(=O)COCCOCCNC(=O)COCCOCCNC(=O)CC[C@H](NC(=O)CCCCCCCCCCCCCCCCCCC(=O)O)C(=O)O)C(=O)N[C@@H](CC(N)=O)C(=O)N[C@@H]([C@@H](C)O)C(=O)N[C@@H](C)C(=O)N[C@@H]([C@@H](C)O)C(=O)N1)[C@@H](C)O)C(=O)N1CCC[C@H]1C(=O)N[C@@H](CO)C(=O)N[C@@H](CO)C(=O)N[C@H](C(=O)N[C@@H](CC(N)=O)C(=O)N[C@H](C(=O)NCC(=O)N[C@@H](CO)C(=O)N[C@@H](CC(N)=O)C(=O)N[C@H](C(=O)N[C@@H](Cc1ccc(O)cc1)C(N)=O)[C@@H](C)O)C(C)C)[C@@H](C)O` [Example 19], the figures for the EC50 in test [1] (setting [9]) and in test [2] were 0.307 nM and 5.32 nM, respectively. The IC50 at human amylin receptor was found to be 0.556 nM; in test [3], 20.4 nM.
